# Experiments:
# A549 [1] = assay: Cytotoxicity against human A549 cells assessed as inhibition of cell growth incubated for 48 hrs by CCK-8 assay; format: functional, cell-based; conditions: A549, 48 h
# MCF7 = assay: Cytotoxicity against human MCF7 cells assessed as inhibition of cell growth incubated for 48 hrs by CCK-8 assay; format: functional, cell-based; conditions: MCF7, 48 h
# K562 = assay: Cytotoxicity against human K562 cells assessed as inhibition of cell growth incubated for 48 hrs by CCK-8 assay; format: functional, cell-based; conditions: K562, 48 h
# T-24 [2] = assay: Cytotoxicity against human T24 cells assessed as inhibition of cell growth incubated for 48 hrs by CCK-8 assay; format: functional, cell-based; conditions: T-24, 48 h
# HepG2 = assay: Cytotoxicity against human HepG2 cells assessed as inhibition of cell growth incubated for 48 hrs by CCK-8 assay; format: functional, cell-based; conditions: HepG2, 48 h
# MKN-45 [3] = assay: Cytotoxicity against human MNK45 cells assessed as inhibition of cell growth incubated for 48 hrs by CCK-8 assay; format: functional, cell-based; conditions: MKN-45, 48 h
# MKN-45 [4] = assay: Potency index, ratio of diosgenin IC50 to test compound IC50 for cytotoxicity against human MNK45 cells assessed as inhibition of cell growth incubated for 48 hrs by CCK-8 assay; format: functional
# T-24 [5] = assay: Potency index, ratio of diosgenin IC50 to test compound IC50 for cytotoxicity against human T24 cells assessed as inhibition of cell growth incubated for 48 hrs by CCK-8 assay; format: functional
# A549 [6] = assay: Potency index, ratio of diosgenin IC50 to test compound IC50 for cytotoxicity against human A549 cells assessed as inhibition of cell growth incubated for 48 hrs by CCK-8 assay; format: functional
SMILES,IC50 (A549 [1]) [µM],IC50 (MCF7) [µM],IC50 (K562) [µM],IC50 (T-24 [2]) [µM],IC50 (HepG2) [µM],IC50 (MKN-45 [3]) [µM],Ratio IC50 (MKN-45 [4]),Ratio IC50 (T-24 [5]),Ratio IC50 (A549 [6])
CC(=O)O[C@H]1CC[C@@]2(C)C(=CC[C@H]3[C@@H]4C[C@@H]5O[C@H](CC[C@@H](C)COC(=O)[C@H](C)N)[C@@H](C)[C@@H]5[C@@]4(C)CC[C@@H]32)C1,27.6,> 30,17.5,11.4,> 30,10.7,–,–,–
CC(=O)O[C@H]1CC[C@@]2(C)C(=CC[C@H]3[C@@H]4C[C@@H]5O[C@H](CC[C@@H](C)COC(=O)[C@@H](N)CC(C)C)[C@@H](C)[C@@H]5[C@@]4(C)CC[C@@H]32)C1,> 30,21.2,11.5,5.67,12.9,12.1,–,–,–
C[C@@H]1CC[C@@]2(OC1)O[C@H]1C[C@H]3[C@@H]4CC=C5C[C@@H](OC(=O)[C@H](C)N)CC[C@]5(C)[C@H]4CC[C@]3(C)[C@H]1[C@@H]2C,18.1,> 30,15.5,9.1,> 30,11.5,–,–,–
CC(C)[C@H](N)C(=O)O[C@H]1CC[C@@]2(C)C(=CC[C@H]3[C@@H]4C[C@@H]5O[C@]6(CC[C@@H](C)CO6)[C@@H](C)[C@@H]5[C@@]4(C)CC[C@@H]32)C1,23,> 30,16.5,11.8,27.7,13.4,–,–,–
CC(=O)O[C@H]1CC[C@@]2(C)C(=CC[C@H]3[C@@H]4C[C@@H]5O[C@H](CC[C@@H](C)COC(=O)CN)[C@@H](C)[C@@H]5[C@@]4(C)CC[C@@H]32)C1,> 30,> 30,15.2,10.4,> 30,17.3,–,–,–
C[C@@H]1CC[C@@]2(OC1)O[C@H]1C[C@H]3[C@@H]4CC=C5C[C@@H](OC(=O)[C@@H]6CCCN6)CC[C@]5(C)[C@H]4CC[C@]3(C)[C@H]1[C@@H]2C,20.6,11.4,7.47,9.65,16.4,5.47,–,–,–
CC(=O)O[C@H]1CC[C@@]2(C)C(=CC[C@H]3[C@@H]4C[C@@H]5O[C@H](CC[C@@H](C)COC(=O)[C@@H](N)Cc6ccccc6)[C@@H](C)[C@@H]5[C@@]4(C)CC[C@@H]32)C1,27.2,> 30,15.8,8.22,18.8,> 30,–,–,–
C[C@@H]1CC[C@@]2(OC1)O[C@H]1C[C@H]3[C@@H]4CC=C5C[C@@H](OC(=O)[C@@H](N)Cc6c[nH]c7ccccc67)CC[C@]5(C)[C@H]4CC[C@]3(C)[C@H]1[C@@H]2C,12.9,9.6,8.47,7.06,17,5.21,15,4.1,–
C[C@@H]1CC[C@@]2(OC1)O[C@H]1C[C@H]3[C@@H]4CC=C5C[C@@H](OC(=O)CN)CC[C@]5(C)[C@H]4CC[C@]3(C)[C@H]1[C@@H]2C [GLYCINE DIOSGENYL ESTER],18,10.3,7.68,9.98,14.9,16.2,–,–,–
C[C@@H]1CC[C@@]2(OC1)O[C@H]1C[C@H]3[C@@H]4CC=C5C[C@@H](O)CC[C@]5(C)[C@H]4CC[C@]3(C)[C@H]1[C@@H]2C [DISOGENIN],32.9,28.5,30,28.9,48.4,78.3,–,–,–
C[C@@H]1CC[C@@]2(OC1)O[C@H]1C[C@H]3[C@@H]4CC=C5C[C@@H](OC(=O)[C@@H](N)Cc6ccccc6)CC[C@]5(C)[C@H]4CC[C@]3(C)[C@H]1[C@@H]2C,> 30,25.4,8.59,10.6,26.1,11.4,–,–,–
CC(C)C[C@H](N)C(=O)O[C@H]1CC[C@@]2(C)C(=CC[C@H]3[C@@H]4C[C@@H]5O[C@]6(CC[C@@H](C)CO6)[C@@H](C)[C@@H]5[C@@]4(C)CC[C@@H]32)C1,> 30,> 30,10.5,8.83,> 30,10.4,–,–,–
CC(=O)O[C@H]1CC[C@@]2(C)C(=CC[C@H]3[C@@H]4C[C@@H]5O[C@H](CC[C@@H](C)COC(=O)[C@@H]6CCCN6)[C@@H](C)[C@@H]5[C@@]4(C)CC[C@@H]32)C1,22.3,> 30,27.7,12.2,18.5,17.3,–,–,–
CC(=O)O[C@H]1CC[C@@]2(C)C(=CC[C@H]3[C@@H]4C[C@@H]5O[C@H](CC[C@@H](C)COC(=O)[C@@H](N)C(C)C)[C@@H](C)[C@@H]5[C@@]4(C)CC[C@@H]32)C1,4.92,17.8,6.77,4.94,12.3,7.01,–,–,6.7
O=c1[nH]cc(F)c(=O)[nH]1 [FLUOROURACIL],–,18.6,20.2,12.9,18.9,21.4,–,–,–
